From PubChem BioAssay (NCI)
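These data come from cells grown in 96-well plates and exposed to compound for 48 hours at five concentrations. Abbreviation: GI50, concentration required for 50% inhibition of growth. The concentration for full growth arrest is given as TGI.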

Columns and labels:
Experiment in all cases: NCI-60 cell line screen, 48 h
PC-3 prostate = test system: PC-3 prostate
EKVX NSCLC = test system: EKVX NSCLC
UO-31 renal = test system: UO-31 renal
MCF7 breast = test system: MCF7 breast
T-47D breast = test system: T-47D breast
SR leukemia = test system: SR leukemia
786-0 renal = test system: 786-0 renal
HOP-92 NSCLC = test system: HOP-92 NSCLC
SF-539 CNS = test system: SF-539 CNS
OVCAR-8 ovarian = test system: OVCAR-8 ovarian
OVCAR-3 ovarian = test system: OVCAR-3 ovarian
TK-10 renal = test system: TK-10 renal
CCRF-CEM leukemia = test system: CCRF-CEM leukemia
MALME-3M melanoma = test system: MALME-3M melanoma
K-562 leukemia = test system: K-562 leukemia
HS 578T breast = test system: HS 578T breast
HL-60(TB) leukemia = test system: HL-60(TB) leukemia
SF-268 CNS = test system: SF-268 CNS
MDA-MB-231 breast = test system: MDA-MB-231 breast
SNB-75 CNS = test system: SNB-75 CNS
IGROV1 ovarian = test system: IGROV1 ovarian
MOLT-4 leukemia = test system: MOLT-4 leukemia
UACC-62 melanoma = test system: UACC-62 melanoma
A498 renal = test system: A498 renal
HCT-116 colon = test system: HCT-116 colon
A549 NSCLC = test system: A549 NSCLC
HCC-2998 colon = test system: HCC-2998 colon
ACHN renal = test system: ACHN renal
LOX IMVI melanoma = test system: LOX IMVI melanoma
SN12C renal = test system: SN12C renal
DU-145 prostate = test system: DU-145 prostate
SF-295 CNS = test system: SF-295 CNS
M14 melanoma = test system: M14 melanoma
RPMI-8226 leukemia = test system: RPMI-8226 leukemia
OVCAR-4 ovarian = test system: OVCAR-4 ovarian
KM12 colon = test system: KM12 colon
CAKI-1 renal = test system: CAKI-1 renal
UACC-257 melanoma = test system: UACC-257 melanoma
COLO 205 colon = test system: COLO 205 colon
HT29 colon = test system: HT29 colon
SK-MEL-28 melanoma = test system: SK-MEL-28 melanoma
HOP-62 NSCLC = test system: HOP-62 NSCLC
RXF 393 renal = test system: RXF 393 renal
NCI-H23 lung = test system: NCI-H23 lung
SK-MEL-5 melanoma = test system: SK-MEL-5 melanoma
SW-620 colon = test system: SW-620 colon
HCT-15 colon = test system: HCT-15 colon
SK-OV-3 ovarian = test system: SK-OV-3 ovarian
MDA-MB-435 = test system: MDA-MB-435

N#C/C(=C\c1ccc(Br)cc1)n1nnc2c(F)cccc21
GI50 (PC-3 prostate): 0.472 µM | TGI (PC-3 prostate): 2.05 µM | GI50 (EKVX NSCLC): 1.75 µM | TGI (EKVX NSCLC): > 100 µM | GI50 (UO-31 renal): 1.04 µM | TGI (UO-31 renal): 2.24 µM | GI50 (MCF7 breast): 0.768 µM | TGI (MCF7 breast): > 100 µM | GI50 (T-47D breast): 0.353 µM | TGI (T-47D breast): 4.78 µM | GI50 (SR leukemia): 0.441 µM | TGI (SR leukemia): > 100 µM | GI50 (786-0 renal): 1.29 µM | TGI (786-0 renal): 2.91 µM | GI50 (HOP-92 NSCLC): 0.156 µM | TGI (HOP-92 NSCLC): 4.48 µM | GI50 (SF-539 CNS): 2.21 µM | TGI (SF-539 CNS): 5.45 µM | GI50 (OVCAR-8 ovarian): 2.87 µM | TGI (OVCAR-8 ovarian): > 100 µM | GI50 (OVCAR-3 ovarian): 0.275 µM | TGI (OVCAR-3 ovarian): 0.845 µM | GI50 (TK-10 renal): 2.36 µM | TGI (TK-10 renal): 6.5 µM | GI50 (CCRF-CEM leukemia): 0.657 µM | TGI (CCRF-CEM leukemia): 3.13 µM | GI50 (MALME-3M melanoma): 1.44 µM | TGI (MALME-3M melanoma): 3.93 µM | GI50 (K-562 leukemia): 0.386 µM | TGI (K-562 leukemia): > 100 µM | GI50 (HS 578T breast): 3.39 µM | TGI (HS 578T breast): > 100 µM | GI50 (HL-60(TB) leukemia): 2.45 µM | TGI (HL-60(TB) leukemia): > 100 µM | GI50 (SF-268 CNS): 3.11 µM | TGI (SF-268 CNS): > 100 µM | GI50 (MDA-MB-231 breast): 1.28 µM | TGI (MDA-MB-231 breast): 4.17 µM | GI50 (SNB-75 CNS): 0.043 µM | TGI (SNB-75 CNS): 5.04 µM | GI50 (IGROV1 ovarian): 0.715 µM | TGI (IGROV1 ovarian): 3.02 µM | GI50 (MOLT-4 leukemia): 2.48 µM | TGI (MOLT-4 leukemia): > 100 µM | GI50 (UACC-62 melanoma): 0.697 µM | TGI (UACC-62 melanoma): 2.17 µM | GI50 (A498 renal): 1.36 µM | TGI (A498 renal): 4.65 µM | GI50 (HCT-116 colon): 0.503 µM | TGI (HCT-116 colon): 1.94 µM | GI50 (A549 NSCLC): 1.93 µM | TGI (A549 NSCLC): > 100 µM | GI50 (HCC-2998 colon): 1.71 µM | TGI (HCC-2998 colon): 3.18 µM | GI50 (ACHN renal): 1.04 µM | TGI (ACHN renal): 2.38 µM | GI50 (LOX IMVI melanoma): 1.41 µM | TGI (LOX IMVI melanoma): 2.77 µM

CCC(=O)OC1=C(c2ccccc2)Sc2ccc(Cl)cc2-n2cccc21
TGI (PC-3 prostate): > 10 µM | TGI (EKVX NSCLC): > 10 µM | TGI (MCF7 breast): > 10 µM | TGI (SN12C renal): > 10 µM | TGI (T-47D breast): > 10 µM | TGI (DU-145 prostate): > 10 µM | TGI (SF-295 CNS): > 10 µM | TGI (SR leukemia): > 10 µM | TGI (M14 melanoma): > 10 µM | TGI (786-0 renal): > 10 µM | TGI (HOP-92 NSCLC): > 10 µM | TGI (RPMI-8226 leukemia): > 10 µM | TGI (OVCAR-4 ovarian): > 10 µM | TGI (OVCAR-8 ovarian): > 10 µM | TGI (TK-10 renal): > 10 µM | TGI (CCRF-CEM leukemia): > 10 µM | TGI (KM12 colon): > 10 µM | TGI (MALME-3M melanoma): > 10 µM | TGI (K-562 leukemia): > 10 µM | TGI (HL-60(TB) leukemia): > 10 µM | TGI (SF-268 CNS): > 10 µM | TGI (MDA-MB-231 breast): > 10 µM | TGI (CAKI-1 renal): > 10 µM | TGI (SNB-75 CNS): > 10 µM | TGI (UACC-257 melanoma): > 10 µM | TGI (COLO 205 colon): > 10 µM | TGI (HT29 colon): > 10 µM | TGI (SK-MEL-28 melanoma): > 10 µM | TGI (IGROV1 ovarian): > 10 µM | TGI (HOP-62 NSCLC): > 10 µM | TGI (MOLT-4 leukemia): > 10 µM | TGI (UACC-62 melanoma): > 10 µM | TGI (RXF 393 renal): > 10 µM | TGI (NCI-H23 lung): > 10 µM | TGI (SK-MEL-5 melanoma): > 10 µM | TGI (SW-620 colon): > 10 µM | TGI (HCT-15 colon): > 10 µM | TGI (A549 NSCLC): > 10 µM | TGI (HCC-2998 colon): > 10 µM | TGI (SK-OV-3 ovarian): > 10 µM | TGI (LOX IMVI melanoma): > 10 µM | TGI (MDA-MB-435): 5.28 µM
